PubChem BioAssay (NCI)
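Where inhibition never reached the appropriate level, the endpoint shown equals the highest concentration tested. Otherwise, values were interpolated linearly from a five-concentration, 48-hour dose response in 96-well plates. At the TGI there is no net growth.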

Experiments:
Test in all cases: NCI tumour cell line growth inhibition, 48 h
CAKI-1 renal = system: CAKI-1 renal
HOP-62 NSCLC = system: HOP-62 NSCLC
SK-MEL-28 melanoma = system: SK-MEL-28 melanoma
OVCAR-5 ovarian = system: OVCAR-5 ovarian
HS 578T breast = system: HS 578T breast
SK-OV-3 ovarian = system: SK-OV-3 ovarian
IGROV1 ovarian = system: IGROV1 ovarian
MDA-MB-435 = system: MDA-MB-435
SF-268 CNS = system: SF-268 CNS
KM12 colon = system: KM12 colon
OVCAR-4 ovarian = system: OVCAR-4 ovarian
TK-10 renal = system: TK-10 renal
EKVX NSCLC = system: EKVX NSCLC
A549 NSCLC = system: A549 NSCLC
COLO 205 colon = system: COLO 205 colon
ACHN renal = system: ACHN renal
NCI-H226 lung = system: NCI-H226 lung
SNB-75 CNS = system: SNB-75 CNS
BT-549 breast = system: BT-549 breast
OVCAR-3 ovarian = system: OVCAR-3 ovarian
HOP-92 NSCLC = system: HOP-92 NSCLC
786-0 renal = system: 786-0 renal
SK-MEL-2 melanoma = system: SK-MEL-2 melanoma
SW-620 colon = system: SW-620 colon
SF-295 CNS = system: SF-295 CNS
K-562 leukemia = system: K-562 leukemia
NCI/ADR-RES ovarian = system: NCI/ADR-RES ovarian
HCT-15 colon = system: HCT-15 colon
SN12C renal = system: SN12C renal
U251 CNS = system: U251 CNS
SNB-19 CNS = system: SNB-19 CNS
MOLT-4 leukemia = system: MOLT-4 leukemia
SR leukemia = system: SR leukemia
RXF 393 renal = system: RXF 393 renal
MALME-3M melanoma = system: MALME-3M melanoma
PC-3 prostate = system: PC-3 prostate
UACC-257 melanoma = system: UACC-257 melanoma
NCI-H522 lung = system: NCI-H522 lung
NCI-H23 lung = system: NCI-H23 lung
HL-60(TB) leukemia = system: HL-60(TB) leukemia
M14 melanoma = system: M14 melanoma
UO-31 renal = system: UO-31 renal
UACC-62 melanoma = system: UACC-62 melanoma
MCF7 breast = system: MCF7 breast
SF-539 CNS = system: SF-539 CNS
HCT-116 colon = system: HCT-116 colon
CCRF-CEM leukemia = system: CCRF-CEM leukemia
OVCAR-8 ovarian = system: OVCAR-8 ovarian
DU-145 prostate = system: DU-145 prostate
RPMI-8226 leukemia = system: RPMI-8226 leukemia
MDA-MB-231 breast = system: MDA-MB-231 breast
HCC-2998 colon = system: HCC-2998 colon
SK-MEL-5 melanoma = system: SK-MEL-5 melanoma
A498 renal = system: A498 renal
HT29 colon = system: HT29 colon
LOX IMVI melanoma = system: LOX IMVI melanoma
T-47D breast = system: T-47D breast
MDA-N = system: MDA-N
NCI-H460 lung = system: NCI-H460 lung

With `ClC1=C(Cl)C(Cl)(Cl)SS1` the TGI (CAKI-1 renal) was 6.76 µM, the TGI (HOP-62 NSCLC) was greater than 10 µM and the TGI (SK-MEL-28 melanoma) was greater than 10 µM. The TGI (OVCAR-5 ovarian) was greater than 10 µM, the TGI (HS 578T breast) was greater than 10 µM and the TGI (SK-OV-3 ovarian) was greater than 10 µM. The TGI (IGROV1 ovarian) was greater than 10 µM, the TGI (MDA-MB-435) was greater than 10 µM and the TGI (SF-268 CNS) was greater than 10 µM. The TGI (KM12 colon) was greater than 10 µM, the TGI (OVCAR-4 ovarian) was 9.81 µM and the TGI (TK-10 renal) was greater than 10 µM. For the same compound, the TGI (EKVX NSCLC) was greater than 10 µM, the TGI (A549 NSCLC) was greater than 10 µM and the TGI (COLO 205 colon) was 3.73 µM. It also gave a TGI (ACHN renal) greater than 10 µM, a TGI (NCI-H226 lung) greater than 10 µM and a TGI (SNB-75 CNS) greater than 10 µM. For the same compound, the TGI (BT-549 breast) was greater than 10 µM, the TGI (OVCAR-3 ovarian) was greater than 9.5 µM and the TGI (HOP-92 NSCLC) was greater than 8.63 µM. The TGI (786-0 renal) was greater than 6.03 µM, the TGI (SK-MEL-2 melanoma) was greater than 10 µM and the TGI (SW-620 colon) was 5.82 µM. For the same compound, the TGI (SF-295 CNS) was greater than 10 µM, the TGI (K-562 leukemia) was greater than 7.82 µM and the TGI (NCI/ADR-RES ovarian) was greater than 10 µM. The TGI (HCT-15 colon) was greater than 10 µM, the TGI (SN12C renal) was greater than 10 µM and the TGI (U251 CNS) was greater than 10 µM. It also gave a TGI (SNB-19 CNS) greater than 10 µM, a TGI (MOLT-4 leukemia) of 3.61 µM and a TGI (SR leukemia) of 5.35 µM. It also gave a TGI (RXF 393 renal) greater than 10 µM, a TGI (MALME-3M melanoma) greater than 6.61 µM and a TGI (PC-3 prostate) greater than 10 µM. The TGI (UACC-257 melanoma) was greater than 7.95 µM, the TGI (NCI-H522 lung) was greater than 6.85 µM and the TGI (NCI-H23 lung) was greater than 10 µM. It also gave a TGI (HL-60(TB) leukemia) greater than 7.32 µM, a TGI (M14 melanoma) greater than 10 µM and a TGI (UO-31 renal) greater than 6.06 µM. For the same compound, the TGI (UACC-62 melanoma) was greater than 10 µM, the TGI (MCF7 breast) was greater than 10 µM and the TGI (SF-539 CNS) was greater than 10 µM. It also gave a TGI (HCT-116 colon) greater than 6.72 µM, a TGI (CCRF-CEM leukemia) greater than 8 µM and a TGI (OVCAR-8 ovarian) greater than 10 µM. The TGI (DU-145 prostate) was greater than 10 µM, the TGI (RPMI-8226 leukemia) was 6.73 µM and the TGI (MDA-MB-231 breast) was greater than 10 µM. It also gave a TGI (HCC-2998 colon) greater than 10 µM, a TGI (SK-MEL-5 melanoma) greater than 10 µM and a TGI (A498 renal) greater than 10 µM. The TGI (HT29 colon) was greater than 10 µM, the TGI (LOX IMVI melanoma) was greater than 10 µM and the TGI (T-47D breast) was greater than 10 µM. It also gave a TGI (MDA-N) greater than 10 µM and a TGI (NCI-H460 lung) greater than 10 µM.

For `C/C=C/[C@@H](C(=O)OC)N1C(=O)c2ccccc2[C@H]1O`, the TGI (CAKI-1 renal) was greater than 100 µM, the TGI (HOP-62 NSCLC) was greater than 100 µM and the TGI (SK-MEL-28 melanoma) was greater than 100 µM. For the same compound, the TGI (OVCAR-5 ovarian) was greater than 100 µM, the TGI (HS 578T breast) was greater than 100 µM and the TGI (SK-OV-3 ovarian) was greater than 100 µM. For the same compound, the TGI (IGROV1 ovarian) was greater than 100 µM, the TGI (MDA-MB-435) was greater than 100 µM and the TGI (SF-268 CNS) was greater than 100 µM. The TGI (KM12 colon) was greater than 100 µM, the TGI (OVCAR-4 ovarian) was greater than 100 µM and the TGI (TK-10 renal) was greater than 100 µM. It also gave a TGI (EKVX NSCLC) greater than 100 µM, a TGI (A549 NSCLC) greater than 100 µM and a TGI (COLO 205 colon) greater than 100 µM. For the same compound, the TGI (ACHN renal) was greater than 100 µM, the TGI (NCI-H226 lung) was greater than 100 µM and the TGI (SNB-75 CNS) was greater than 100 µM. It also gave a TGI (BT-549 breast) greater than 100 µM, a TGI (OVCAR-3 ovarian) greater than 100 µM and a TGI (HOP-92 NSCLC) greater than 100 µM. It also gave a TGI (786-0 renal) greater than 100 µM, a TGI (SK-MEL-2 melanoma) greater than 100 µM and a TGI (SW-620 colon) greater than 100 µM. The TGI (SF-295 CNS) was greater than 100 µM, the TGI (K-562 leukemia) was greater than 100 µM and the TGI (NCI/ADR-RES ovarian) was greater than 100 µM. For the same compound, the TGI (HCT-15 colon) was greater than 100 µM, the TGI (SN12C renal) was greater than 100 µM and the TGI (U251 CNS) was greater than 100 µM. The TGI (SNB-19 CNS) was greater than 100 µM, the TGI (MOLT-4 leukemia) was greater than 100 µM and the TGI (SR leukemia) was greater than 100 µM. The TGI (RXF 393 renal) was greater than 100 µM, the TGI (MALME-3M melanoma) was greater than 100 µM and the TGI (PC-3 prostate) was greater than 100 µM. It also gave a TGI (UACC-257 melanoma) greater than 100 µM, a TGI (NCI-H522 lung) greater than 100 µM and a TGI (NCI-H23 lung) greater than 100 µM. It also gave a TGI (HL-60(TB) leukemia) greater than 100 µM, a TGI (M14 melanoma) greater than 100 µM and a TGI (UO-31 renal) greater than 100 µM. It also gave a TGI (UACC-62 melanoma) greater than 100 µM, a TGI (MCF7 breast) greater than 100 µM and a TGI (SF-539 CNS) greater than 100 µM. It also gave a TGI (HCT-116 colon) greater than 100 µM, a TGI (CCRF-CEM leukemia) greater than 100 µM and a TGI (OVCAR-8 ovarian) greater than 100 µM. It also gave a TGI (DU-145 prostate) greater than 100 µM, a TGI (RPMI-8226 leukemia) greater than 100 µM and a TGI (MDA-MB-231 breast) greater than 100 µM. For the same compound, the TGI (HCC-2998 colon) was greater than 100 µM, the TGI (SK-MEL-5 melanoma) was greater than 100 µM and the TGI (A498 renal) was greater than 100 µM. The TGI (HT29 colon) was greater than 100 µM, the TGI (LOX IMVI melanoma) was greater than 100 µM and the TGI (T-47D breast) was greater than 100 µM. For the same compound, the TGI (MDA-N) was greater than 100 µM and the TGI (NCI-H460 lung) was greater than 100 µM.

Compound `S=C1N=C2C(=N1)n1c3c(c4ccccc41)CCCC23` (configuration not stated) has a TGI (CAKI-1 renal) greater than 100 µM, a TGI (HOP-62 NSCLC) greater than 100 µM and a TGI (SK-MEL-28 melanoma) greater than 100 µM. The TGI (OVCAR-5 ovarian) was greater than 100 µM, the TGI (HS 578T breast) was greater than 100 µM and the TGI (SK-OV-3 ovarian) was greater than 100 µM. It also gave a TGI (IGROV1 ovarian) greater than 100 µM, a TGI (MDA-MB-435) greater than 100 µM and a TGI (SF-268 CNS) greater than 100 µM. For the same compound, the TGI (KM12 colon) was greater than 100 µM, the TGI (OVCAR-4 ovarian) was greater than 100 µM and the TGI (TK-10 renal) was greater than 100 µM. For the same compound, the TGI (EKVX NSCLC) was greater than 100 µM, the TGI (A549 NSCLC) was greater than 100 µM and the TGI (COLO 205 colon) was greater than 100 µM. It also gave a TGI (ACHN renal) greater than 100 µM, a TGI (NCI-H226 lung) greater than 100 µM and a TGI (SNB-75 CNS) greater than 100 µM. For the same compound, the TGI (BT-549 breast) was greater than 100 µM, the TGI (OVCAR-3 ovarian) was greater than 100 µM and the TGI (HOP-92 NSCLC) was greater than 100 µM. It also gave a TGI (786-0 renal) of 32.9 µM, a TGI (SK-MEL-2 melanoma) greater than 100 µM and a TGI (SW-620 colon) greater than 100 µM. It also gave a TGI (SF-295 CNS) greater than 100 µM, a TGI (K-562 leukemia) greater than 100 µM and a TGI (NCI/ADR-RES ovarian) greater than 100 µM. The TGI (HCT-15 colon) was greater than 100 µM, the TGI (SN12C renal) was 72.6 µM and the TGI (U251 CNS) was greater than 100 µM. The TGI (SNB-19 CNS) was greater than 100 µM, the TGI (MOLT-4 leukemia) was greater than 100 µM and the TGI (SR leukemia) was greater than 100 µM. It also gave a TGI (RXF 393 renal) greater than 100 µM, a TGI (MALME-3M melanoma) greater than 100 µM and a TGI (PC-3 prostate) greater than 100 µM. The TGI (UACC-257 melanoma) was greater than 100 µM, the TGI (NCI-H522 lung) was 63.3 µM and the TGI (NCI-H23 lung) was greater than 100 µM. It also gave a TGI (HL-60(TB) leukemia) greater than 100 µM, a TGI (M14 melanoma) greater than 100 µM and a TGI (UO-31 renal) greater than 100 µM. The TGI (UACC-62 melanoma) was greater than 100 µM, the TGI (MCF7 breast) was 63.1 µM and the TGI (SF-539 CNS) was greater than 100 µM. For the same compound, the TGI (HCT-116 colon) was greater than 100 µM, the TGI (CCRF-CEM leukemia) was greater than 100 µM and the TGI (OVCAR-8 ovarian) was greater than 100 µM. It also gave a TGI (DU-145 prostate) greater than 100 µM, a TGI (RPMI-8226 leukemia) of 97.5 µM and a TGI (MDA-MB-231 breast) greater than 100 µM. For the same compound, the TGI (HCC-2998 colon) was greater than 100 µM, the TGI (SK-MEL-5 melanoma) was greater than 100 µM and the TGI (A498 renal) was greater than 100 µM. It also gave a TGI (HT29 colon) greater than 100 µM, a TGI (LOX IMVI melanoma) of 35.6 µM and a TGI (T-47D breast) greater than 100 µM. For the same compound, the TGI (MDA-N) was greater than 100 µM and the TGI (NCI-H460 lung) was greater than 100 µM.
